# Measurements from the METLIN SMRT retention time set (Domingo-Almenara et al. 2019).
# Assay: gradient 5% acetonitrile 3 min, to 50% in 2 min, to 85% in 15 min, held 3 min, 100 µL/min
# Conditions: column: Zorbax Extend-C18 2.1 x 50 mm; eluents: water / acetonitrile, 0.1% formic acid
# Method in brief: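 Pure standards were analyzed in mixtures of ~100 molecules using HPLC coupled to a quadrupole time-of-flight mass spectrometer, in both positive and negative ionization mode. Separation used a Zorbax Extend-C18 column (2.1 × 50 mm, 1.8 μm) at 100 μL/min, with water and acetonitrile each containing 0.1% formic acid. Dead and dwell volumes were 40 μL and 900 μL, and data were collected over 3 months. Retention time was read from computationally picked adduct peaks, each inspected manually.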
row,SMILES,RP-LC retention time [s]
1,Cc1ccc(N2CCN(C(=O)c3sc4ncccc4c3-n3cccc3)CC2)c(C)c1,1260
2,O=C(C1CCCN(c2ncnc3c2nc2n3CCCCC2)C1)N1CCN(c2ccc(Cl)cc2)CC1 (configuration not stated),928
3,CCCc1nc(N2CCN(c3ccccn3)CC2)ncc1C(=O)O,606
4,CCCc1nc2c(c(=O)n1CC(=O)NCc1cccs1)CCN(Cc1ccccc1)C2,641
5,CCCC(=O)Nc1ccc2c(c1)CN(C(=O)Cc1ccc(C)cc1)C(C(=O)N(C)C)C2 (configuration not stated),748
6,Cc1oc(C2CCN(S(=O)(=O)c3ccccc3F)CC2)nc1C(=O)N1CCOCC1,776
7,CCN1CCCn2cc(S(=O)(=O)N3CCOCC3)cc2C1=O,614
8,CCn1c(=O)c(C)nc2cc(-c3noc(Cc4ccccc4Br)n3)ccc21,1070
9,CCOCCCNC(=O)C1CCN(c2nccnc2Oc2ccccc2C)CC1,841
10,NC(=O)C1CCN(C(=O)CSc2nc3ccccc3s2)CC1,627
11,COc1ccc(NC(=O)C2CCN(c3cc(N4CCSCC4)ncn3)CC2)cc1Cl,706
12,Cc1ccc(NC(=O)C2CCN(S(=O)(=O)c3cn(C)cn3)CC2)cc1C,734
13,CCOc1ccccc1C(=O)NC1CCN(C(=O)c2cn[nH]c2-c2ccc(F)cc2)CC1,683
14,CCc1onc(C)c1C1CCCN1C(=O)c1ccc(OC)c(OC)c1 (configuration not stated),714
15,CCOc1ccc(-c2nn3c(CSc4ccccc4)nnc3s2)cc1OC,987
16,CCOc1ccccc1CNC(=O)C1CCN(C(=O)c2ncn3c2COC(c2ccccc2)C3)CC1 (configuration not stated),803
17,Cc1ccn2c(NC(=O)Cc3ccccc3)c(-c3ccc(F)cc3)nc2c1,669
18,O=C(Nc1ncccn1)c1c[nH]c2c(Cl)cccc2c1=O,617
19,CCc1nc(-c2csc(S(=O)(=O)N3CCC(C(=O)Nc4ccccc4F)CC3)c2)no1,981
20,CCC1CCCCN1C(=O)Cc1c(C)nc2nc(-c3ccc(C(C)(C)C)cc3)nn2c1C (configuration not stated),1160
21,Fc1ccc(-c2nc(-c3ccc(-n4cccn4)nc3)no2)cc1F,1070
22,CCOc1ccccc1-c1nc(-c2ccc3nnn(CC)c3c2)no1,1110

row,SMILES,RP-LC retention time [s]
1,Cc1ccc(C)c(NC(=O)C2CCN(S(=O)(=O)c3ccc4c(c3)NC(=O)C(C)O4)CC2)c1 (configuration not stated),824
2,CC(C)Cc1nc(C2CN(C(=O)c3cnccn3)CC23CCCC3)no1 (configuration not stated),618
3,CCOc1ccccc1NC(=O)C1CCCN(c2cnc3nccnc3c2)C1 (configuration not stated),664
4,Cc1cc(C)c(S(=O)(=O)N2CC(=O)N(CC3CC3)C3(CCOCC3)C2)c(C)c1,944
5,Cc1cc(C)cc(NC(=O)Nc2nccn(-c3cccc(Cl)c3)c2=O)c1,1110
6,CCc1ccc(NC(=O)C2CCN(S(=O)(=O)c3cn(CC)cn3)CC2)cc1,794
7,CC(=O)N(C)CCc1noc(-c2ccc(C(=O)NCCC(C)C)cc2)n1,733
8,CCc1ccc(C(=O)N2CCc3[nH]nc(C(=O)N(C)C)c3C2)cc1,659
9,O=C(Nc1ncccn1)c1ccc(Cl)c(S(=O)(=O)N2CCOCC2)c1,611
10,O=C(Cc1ccccc1Br)N1CCN(c2cc(-c3cccs3)[nH]n2)CC1,837
11,Cc1nccn1CC(=O)N1CCCn2cc(-c3cccc(C#N)c3)nc21,626
12,CCOc1ccccc1NC(=O)Cn1cnc2nc(N3CCCC(C(=O)NC)C3)sc2c1=O (configuration not stated),667
13,Cc1ccccc1CN1C(=O)N(c2cccc(F)c2)c2ncccc2S1(=O)=O,1090
14,C=CCN1C[C@H](C)N([C@H](c2ccccc2)c2ccc(C(=O)N(CC)CC)cc2)C[C@H]1C,702
15,COc1ccc(NC(=O)N2CCC(n3cnnc3C3CC3)C2)c(OC)c1 (configuration not stated),610
16,COCCC(=O)NCCC1CCN(C(=O)Nc2cc(F)ccc2F)CC1,675
17,COC(=O)c1nc(NC(=O)Cn2nc3c(cc2=O)CCCC3)sc1C,710
18,Cc1ccc(S(=O)(=O)N2CCCC2c2nc(-c3ccc(Cl)cc3)no2)cc1C (configuration not stated),1300
19,Cc1c(Cl)cccc1NC(=O)N1CCC(n2cnc3ccccc3c2=O)CC1,791
20,CCN1C(=O)C2CCCCN2c2ccc(C(=O)N3CCN(c4ccccc4)CC3)cc21 (configuration not stated),974
21,O=C(NCC1CCN(c2ncccn2)CC1)C(=O)NCC(F)(F)F,626

# More lines, now with the values ahead:
row,RP-LC retention time [s],SMILES
1,1040,COc1ccc(C)cc1NC(=O)c1cc(C)n2nc(C)cc2n1
2,1000,CCc1nn2c(CNS(=O)(=O)c3ccccc3Cl)c(-c3ccccc3)nc2s1
3,1090,Cc1cc(-c2c(C)sc(C)c2S(=O)(=O)NCc2ccc(Cl)cc2)n[nH]1
4,905,CCc1ccc(NC(=O)Cn2c(=O)nc(N3CCCC(C)C3)c3ccccc32)cc1 (configuration not stated)
5,939,Cc1occc1-c1nnc2sc(COc3ccc(F)cc3)nn12
6,700,N#Cc1ccc(C(=O)NC2CCN(c3cc(-c4cccs4)[nH]n3)C2)cc1 (configuration not stated)
7,813,Cn1cc(CC(=O)NCc2cc(-c3ccc4c(c3)OCO4)on2)c2ccccc21
8,1010,Cc1ccc([N+](=O)[O-])cc1NC(=O)Nc1cccc(F)c1
9,781,Cn1c(=O)c2nc(S(=O)(=O)CCC(=O)Nc3ccc(Cl)cc3F)n(C)c2n(C)c1=O
10,1010,COc1ccc(-c2nnc(COc3cccc(NC(=O)C(NC(=O)c4ccco4)C(C)C)c3)o2)cc1 (configuration not stated)
11,709,CCOc1ccc(NC(=O)CCSc2nnc(C)s2)cc1
12,865,CCCCOc1ccc(C(=O)NCc2ccco2)cc1
13,1060,COc1cc(NC(=O)Cn2c(C)nc3c(sc4nc(-c5ccccc5)ccc43)c2=O)cc(OC)c1
14,684,CC(C)c1ccc(NC(=O)c2cn3c(n2)CCCC3)cc1
15,850,Cc1ccc2c(c1)C(=O)NC1(CCN(C(=O)Cc3ccc(Cl)cc3)CC1)N2C
16,798,Cc1nnc(-c2ccc3ccn(CC(=O)Nc4cccc(C)c4C)c3c2)o1
17,663,COC(=O)c1ccc(Cl)cc1NC(=O)N1CCN(CCn2cnc3cccnc32)CC1
18,732,NC(=O)C1CCN(c2ncnc3c2cnn3-c2ccc(Cl)cc2)CC1
19,679,CCN1CCC(N(Cc2cccs2)C(=O)Nc2cccc(Cl)c2)CC1
20,766,O=C(COc1ccccc1F)Nc1nnc(C2CCCCC2)o1
21,693,COc1ccc(OC)c(-c2nnc(SCC(=O)Nc3nccs3)o2)c1
22,883,CSCc1csc(NC(=O)COc2ccc(Cl)cc2)n1
23,873,N#CC1(C(=O)NCCc2ccc(Cl)cc2)CC1
24,952,Cc1ccc(-n2c(=O)c3c(cc(C)n3C)n(CC(=O)Nc3cc(Cl)ccc3C)c2=O)cc1
